In patent US20230339886A1 (University of Florida Research Foundation, Incorporated, priority 2020, published 2023):
Like-named read-outs stand apart in the source and are kept apart here.

Molecular target: T1, REV-ERBα LBD (human; residues 281-614 Δ324-422) (Homo sapiens, UniProt P20393, DEL324-422)
T1 construct: 6×Histag-REV-ERBα LBD (human; residues 281-614 Δ324-422); made in house; host or cells: Escherichia coli
Assay: TR-FRET corepressor interaction assay (REV-ERBα LBD, FITC-SMRT peptide)
Assay type: biochemical
How it was run: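 Compound serial dilutions (in DMSO, triplicate) incubated 2 h at 4 °C; Tb donor excited at 340 nm, emission read at 495 nm and FITC acceptor at 520 nm. TR-FRET ratio (520/495 nm) plotted against ligand concentration and fitted to a sigmoidal dose-response curve.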

[1] = Table 2, read-out: REVERBα agonism (EC50 class, FRET assay)
[2] = FITC-SMRT peptide, read-out: REVERBα agonism (EC50 class, FRET assay)

T1 sequence (P20393 with tags, fused parts or gaps DEL324-422): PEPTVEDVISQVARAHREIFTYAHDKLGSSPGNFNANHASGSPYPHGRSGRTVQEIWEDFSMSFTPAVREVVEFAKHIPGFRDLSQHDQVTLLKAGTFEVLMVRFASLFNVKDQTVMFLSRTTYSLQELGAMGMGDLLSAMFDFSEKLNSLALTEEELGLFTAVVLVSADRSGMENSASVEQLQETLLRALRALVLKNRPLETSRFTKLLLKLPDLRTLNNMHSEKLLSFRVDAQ
T1 sequence (Q9Y618 2335-2356 partner limits assumed): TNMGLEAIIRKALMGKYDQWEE

Compound | EC50 [1] | EC50 [2]
CC(C)(C)Cc1cn(CCNS(=O)(=O)C2CC2)c2ccc(-c3ccc(F)c4ccccc34)cc12 [Example 219, N-(2-(5-(4-fluoronaphthalen-1-yl)-3-neopentyl-1H-indol-1-yl)ethyl)cyclopropanesulfonamide] | < 500 nM | 
CC(C)Cn1cc(CCNS(=O)(=O)N(C)C)c2ccc(-c3cccc([N+](=O)[O-])c3)cc21 [Example 49, N-{2-[6-(3-nitrophenyl)-1-(2-methylpropyl)-1H-indol-3-yl]ethyl}-N,N-dimethylsulfuric diamide] | < 500 nM | 
Cc1cccc(Cl)c1-c1ccc2c([C@H](NS(=O)(=O)C3CC3)C(F)(F)F)cn(CC(C)(C)C)c2c1 [Example 388, (S)—N-(1-(6-(2-chloro-6-methylphenyl)-1-neopentyl-1H-indol-3-yl)-2,2,2-trifluoroethyl)cyclopropanesulfonamide] | < 500 nM | 
CC(C)Cn1cc(-c2cccc(CNS(=O)(=O)C(C)C)c2)c2ccc(-c3ccccc3)cc21 [Example 86, N-(3-(1-isobutyl-6-phenyl-1H-indol-3-yl)benzyl)propane-2-sulfonamide] | 500 to 3000 nM | 
CC(NS(=O)(=O)C12CC(C1)C2)c1cn(CC(C)(C)C)c2cc(-c3ccccc3C(F)(F)F)ccc12 (centres unmarked) [Example 433, N-(1-(1-neopentyl-6-(2-(trifluoromethyl)phenyl)-1H-indol-3-yl)ethyl)bicyclo[1.1.1]pentane-1-sulfonamide] |  | < 500 nM
CN(C)S(=O)(=O)NCCn1cc(CC(F)(F)F)c2cc(Cl)ccc21 [Example 152, N-{2-[5-chloro-3-(2,2,2-trifluoroethyl)-1H-indol-1-yl]ethyl}-N,N-dimethylsulfuric diamide] | 500 to 3000 nM | 
CC(C)Cn1cc(CNS(=O)(=O)N2CCCC2)c2ccc(-c3ccncc3)cc21 [Compound 244] | < 500 nM | 
COc1ccccc1-c1ccc2c(c1)c(CC(C)(C)C)cn2CCNS(=O)(=O)C1CC1 [Example 303, N-(2-(5-(2-methoxyphenyl)-3-neopentyl-1H-indol-1-yl)ethyl)cyclopropane-sulfonamide] | < 500 nM | 
CN(C)S(=O)(=O)NCCn1cc(CC(F)(F)C(F)(F)F)c2cc(Cl)ccc21 [Example 153, N-{2-[5-chloro-3-(2,2,3,3,3-pentafluoropropyl)-1H-indol-1-yl]ethyl}-N,N-dimethylsulfuric diamide] | 500 to 3000 nM | 
CC(C)(C)Cn1cc([C@H](NS(=O)(=O)C2CC2)C(F)(F)F)c2ccc(-c3ncccn3)cc21 [Example 382, (S)—N-(2,2,2-trifluoro-1-(1-neopentyl-6-(pyrimidin-2-yl)-1H-indol-3-yl)ethyl)cyclopropanesulfonamide] | 500 to 3000 nM | 
CC(C)Cn1cc([C@H](NS(=O)(=O)C2CC2)C(F)(F)F)c2ccc(-c3ccnn3C)cc21 [Example 370, (S)—N-(2,2,2-trifluoro-1-(1-isobutyl-6-(1-methyl-1H-pyrazol-5-yl)-1H-indol-3-yl)ethyl)cyclopropanesulfonamide] | < 500 nM | 
CC(C)Cn1cc(CNS(=O)(=O)C2CCCC2)c2ccc(-c3ccncc3)cc21 [Compound 243] | < 500 nM | 
CC(C)Cn1cc(C(C)(C)CNS(=O)(=O)N(C)C)c2ccc(-c3ccncc3)cc21 [Example 177, dimethyl({2-methyl-2-[1-(2-methylpropyl)-6-(pyridin-4-yl)-1H-indol-3-yl]propyl}sulfamoyl)amine] | 500 to 3000 nM | 
C=C(C)c1ccc2c(CCNS(=O)(=O)N(C)C)cn(CC(C)C)c2c1 [Example 88] | < 500 nM | 
CC(C)(C)Cc1cn(CCNS(=O)(=O)C2CC2)c2ccc(-c3cccc(F)c3Cl)cc12 [Example 228, N-(2-(5-(2-chloro-3-fluorophenyl)-3-neopentyl-1H-indol-1-yl)ethyl)cyclopropane sulfonamide] | < 500 nM | 
CC(C)Cc1cn(CCN(C)S(=O)(=O)N(C)C)c2ncc(-c3ccncc3)cc12 [Example 125, dimethyl[methyl({2-[3-(2-methylpropyl)-5-(pyridin-4-yl)-1H-pyrrolo[2,3-b]pyridin-1-yl]ethyl})sulfamoyl]amine] | < 500 nM | 
Cc1c(Br)ccc2c([C@H](NS(=O)(=O)C3CC3)C(F)(F)F)cn(CC(C)(C)C)c12 [Example 368, (S)—N-(1-(6-bromo-7-methyl-1-neopentyl-1H-indol-3-yl)-2,2,2-trifluoroethyl)cyclopropanesulfonamide] | 500 to 3000 nM | 

Now from value to compound:

EC50 [1] | EC50 [2] | Compound
 | < 500 nM | CC(C)(C)Cn1cc([C@H](NS(=O)(=O)C2CCC2)C(F)F)c2cc(F)c(-c3ccccc3C(F)(F)F)nc21 [Example 533, (S)—N-(2,2-difluoro-1-(5-fluoro-1-neopentyl-6-(2-(trifluoromethyl)phenyl)-1H-pyrrolo[2,3-b]pyridin-3-yl)ethyl)cyclobutanesulfonamide]
 | < 500 nM | CC(C)(C)Cn1cc([C@H](NS(=O)(=O)C2CCC2)C(F)(F)F)c2ccc(-c3ccccc3C(F)(F)F)c(F)c21 [Example 544, (S)—N-(2,2,2-trifluoro-1-(7-fluoro-1-neopentyl-6-(2-(trifluoromethyl)phenyl)-1H-indol-3-yl)ethyl)cyclobutanesulfonamide]
 | > 3000 nM | CC(C)(C)Cn1cc([C@H](NS(=O)(=O)C2CCC2(F)F)C(F)(F)F)c2ccc(-c3ccccc3C(F)(F)F)cc21 (stereo partly drawn) [Example 537, 2,2-difluoro-N—((S)-2,2,2-trifluoro-1-(1-neopentyl-6-(2-(trifluoromethyl)phenyl)-1H-indol-3-yl)ethyl)cyclobutane-1-sulfonamide]
 | < 500 nM | CC(C)(C)Cn1cc([C@H](NS(=O)(=O)C2CC2)C(F)(F)F)c2ccc(-c3ccccc3C(F)(F)F)c(F)c21 [Example 536, (S)—N-(2,2,2-trifluoro-1-(7-fluoro-1-neopentyl-6-(2-(trifluoromethyl)phenyl)-1H-indol-3-yl)ethyl)cyclopropanesulfonamide]
 | < 500 nM | CCC(C)n1cc([C@H](NS(=O)(=O)C2CCC2)C(F)(F)F)c2ccc(-c3ccccc3C(F)(F)F)cc21 (stereo partly drawn) [Example 446, N-((1S)-1-(1-(sec-butyl)-6-(2-(trifluoromethyl)phenyl)-1H-indol-3-yl)-2,2,2-trifluoroethyl)cyclobutanesulfonamide]
 | 500 to 3000 nM | NC(=O)c1cccc(F)c1-c1ccc2c([C@H](NS(=O)(=O)C3CCC3)C(F)(F)F)cn(C3CCC3)c2c1 [Example 439, (S)-2-(3-(1-(cyclobutanesulfonamido)-2,2,2-trifluoroethyl)-1-cyclobutyl-1H-indol-6-yl)-3-fluorobenzamide]
 | 500 to 3000 nM | CC(C)(C)Cn1cc(CCNS(=O)(=O)C2CC2)c2ccc(-c3cccc(C(F)(F)F)c3Cl)cc21 [Example 485, N-(2-(6-(2-chloro-3-(trifluoromethyl)phenyl)-1-neopentyl-1H-indol-3-yl)ethyl)cyclopropanesulfonamide]
 | 500 to 3000 nM | CC(C)(CO)Cn1cc([C@H](NS(=O)(=O)C2CC2)C(F)(F)F)c2cc(F)c(-c3ccccc3C(F)(F)F)cc21 [Example 490, N-[(1S)-2,2,2-trifluoro-1-[5-fluoro-1-(3-hydroxy-2,2-dimethyl-propyl)-6-[2-(trifluoromethyl)phenyl]indol-3-yl]ethyl]cyclopropanesulfonamide]
 | < 500 nM | CC(C)(C)Cn1cc([C@H](NS(=O)(=O)C2CCC2)C(F)(F)F)c2ccc(-c3ccccc3C#N)nc21 [Example 534, (S)—N-(1-(6-(2-cyanophenyl)-1-neopentyl-1H-pyrrolo[2,3-b]pyridin-3-yl)-2,2,2-trifluoroethyl)cyclobutanesulfonamide]
